# Source: patent US4521537A, “Spiro[2H-1,4-benzodioxepin-3(5H)4'-piperidine and -3'-pyrrolidine] compounds and their use as antihypertensive agents” (Hoechst-Roussel Pharmaceuticals Incorporated, priority 1984, dated 1985)
# Counter-ions that a name gives are not always drawn.
# System: spontaneous hypertensive rat
# Test: antihypertensive activity, spontaneous hypertensive rat (SHR) test, indirect tail cuff method
# Type: in vivo
# Protocol: Compounds of this invention are useful as antihypertensive agents due to their ability to depress blood pressure in mammals. Antihypertensive activity is measured in the spontaneous hypertensive rat by the indirect tail cuff method described by A. Schwartz, Ed., Methods in Pharmacology, Vol. page 135, Appleton Century Crafts, New York (1971). […] The drop in blood pressure is measured on the third day following administration. The antihypertensive activity is expressed as mm Hg decrease in mean arterial blood pressure.
# [1] = Table I, 50 mg/kg PO, three days
# [2] = Table I, 3 mg/kg PO, three days
# [3] = Table I, 10 mg/kg PO, three days
smiles,measurement,setting,value
"CC1Oc2ccccc2COC12CCN(CCCC(c1ccc(F)cc1)c1ccc(F)cc1)CC2 (centres unmarked) [Example 8, 1'-[4,4-Bis-(4-fluorophenyl)butyl]-2-methylspiro[2H-1,4-benzodioxepin-3(5H)4'-piperidine]oxalate]",SHR mm Hg (decrease in mean arterial blood pressure),[1],-102 mm Hg
"CC1Oc2ccccc2COC12CCN(CCCC1(c3ccc(F)cc3)OCCO1)CC2 (centres unmarked) [Example 9, 2-Methyl-1'-[3-[2-(4-fluorophenyl)-1,3-dioxolan-2yl]propyl]spiro[2H-1,4-benzodioxepin-3(5H)4'-piperidine]maleate]",SHR mm Hg (decrease in mean arterial blood pressure),[1],-34 mm Hg
"CC1Oc2ccccc2COC12CCN(CCC=C(c1ccc(F)cc1)c1ccc(F)cc1)CC2 (centres unmarked) [Example 10, 1'-[4,4-Bis(4-fluorophenyl)-3-butenyl]-2-methylspiro[2H-1,4-benzodioxepin-3(5H)4'-piperidine]maleate]",SHR mm Hg (decrease in mean arterial blood pressure),[1],-18 mm Hg
"CC1Oc2ccccc2COC12CCN(CCCC(c1ccccc1)c1ccccc1)CC2 (centres unmarked) [Example 11, 1'-(4,4-Diphenylbutyl)-2-methylspiro[2H-1,4-benzodioxepin-3(5H)4'-piperidine]oxalate]",SHR mm Hg (decrease in mean arterial blood pressure),[1],-17 mm Hg
"CC1Oc2ccccc2COC12CCN(CCC=C(c1ccccc1)c1ccccc1)CC2 (centres unmarked) [Example 12, 1'-[4,4-Diphenyl-3-butenyl]-2-methylspiro[2H-1,4-benzodioxepin-3(5H)4'-piperidine]maleate]",SHR mm Hg (decrease in mean arterial blood pressure),[1],-20 mm Hg
"CC1Oc2ccccc2COC12CCN(CCCCc1ccc(F)cc1)CC2 (centres unmarked) [Example 14, 1'-[4-(4-Fluorophenyl)butyl]-2-methylspiro[2H-1,4-benzodioxepin-3(5H)4'-piperidine]hydrochloride]",SHR mm Hg (decrease in mean arterial blood pressure),[1],-34 mm Hg
"CC1Oc2ccccc2COC12CCN(CCCC(c1ccc(Cl)cc1)c1ccc(Cl)cc1)CC2 (centres unmarked) [Example 15, 1'-[4,4-Bis(4-chlorophenyl)butyl]-2-methylspiro[2H-1,4-benzodioxepin-3(5H)4'-piperidine]oxalate]",SHR mm Hg (decrease in mean arterial blood pressure),[1],-27 mm Hg
"CC1Oc2ccc(Cl)cc2COC12CCN(CCC=C(c1ccccc1)c1ccccc1)CC2 (centres unmarked) [Example 16, 1'-[4,4-Diphenyl-3-butenyl]-7-chloro-2-methylspiro[2H-1,4-benzodioxepin-3(5H)4'-piperidine]oxalate]",SHR mm Hg (decrease in mean arterial blood pressure),[1],-47 mm Hg
"CC1Oc2ccc(Cl)cc2COC12CCN(CCCC(c1ccccc1)c1ccccc1)CC2 (centres unmarked) [Example 17, 1'-[4,4-Diphenylbutyl]-7-chloro-2-methylspiro[2H-1,4-benzodioxepin-3(5H)4'-piperidine]oxalate]",SHR mm Hg (decrease in mean arterial blood pressure),[2],-23 mm Hg
same,SHR mm Hg (decrease in mean arterial blood pressure),[1],-84 mm Hg
"CC1Oc2ccc(Cl)cc2COC12CCN(CCCC(c1ccc(F)cc1)c1ccc(F)cc1)CC2 (centres unmarked) [Example 18, 1'-[4,4-Bis(4-fluorophenyl)butyl]-7-chloro-2-methylspiro[2H-1,4-benzodioxepin-3(5H)4'-piperidine]oxalate]",SHR mm Hg (decrease in mean arterial blood pressure),"Table I, 0.3 mg/kg PO, three days",-41 mm Hg
"CC1Oc2ccc(Cl)cc2COC12CCN(CCC=C(c1ccc(F)cc1)c1ccc(F)cc1)CC2 (centres unmarked) [Example 19, 1'-[4,4-Bis(4-fluorophenyl)-3-butenyl]-7-chloro-2-methylspiro[2H-1,4-benzodioxepin-3(5H)4'-piperidine]oxalate]",SHR mm Hg (decrease in mean arterial blood pressure),[3],-43 mm Hg
"CC1Oc2ccc(Cl)cc2COC12CCN(CCC(c1ccccc1)c1ccccc1)CC2 (centres unmarked) [Example 20, 7-Chloro-2-methyl-1'-(3,3-diphenylpropyl)spiro[2H-1,4-benzodioxepin-3(5H)4'-piperidine]hydrochloride]",SHR mm Hg (decrease in mean arterial blood pressure),[1],-15 mm Hg
"CC1Oc2ccc(Br)cc2COC12CCN(CCCC(c1ccc(F)cc1)c1ccc(F)cc1)CC2 (centres unmarked) [Example 21, 7-Bromo-1'-[4,4-bis(4-fluorophenyl)butyl]-2-methylspiro[2H-1,4-benzodioxepin-3(5H)4'-piperidine]oxalate]",SHR mm Hg (decrease in mean arterial blood pressure),[2],-63 mm Hg
same,SHR mm Hg (decrease in mean arterial blood pressure),"Table I, 5 mg/kg PO, three days",-74 mm Hg
"CC1Oc2ccccc2COC12CCN(CCCC(O)c1ccc(F)cc1)CC2 (centres unmarked) [Example 23, 1'-[4-Hydroxy-4-(4-fluorophenyl)butyl]-2-methylspiro[2H-1,4-benzodioxepin-3(5H)4'-piperidine]]",SHR mm Hg (decrease in mean arterial blood pressure),[3],-31 mm Hg
"CC1Oc2ccccc2COC12CCN(CCCC(Oc1ccc(F)cc1)c1ccc(F)cc1)CC2 (centres unmarked) [Example 24, 1'-[4-(4-Fluorophenoxy)-4-(4-fluorophenyl)butyl]-2-methylspiro[2H-1,4-benzodioxepin-3(5H)4'-piperidine]oxalate]",SHR mm Hg (decrease in mean arterial blood pressure),[1],-24 mm Hg
"CC1Oc2ccccc2COC12CCNCC2 (centres unmarked) [Example 36, 2-Methylspiro[2H-1,4-benzodioxepin-3(5H)4'-piperidine]oxalate]",SHR mm Hg (decrease in mean arterial blood pressure),[1],-42 mm Hg
"CC1Oc2ccc(F)cc2COC12CCN(CCCC(c1ccccc1)c1ccccc1)CC2 (centres unmarked) [Example 41, 1'-(4,4-Diphenylbutyl)-7-fluoro-2-methylspiro[2H-1,4-benzodioxepin-3(5H)4'-piperidine]hydrochloride]",SHR mm Hg (decrease in mean arterial blood pressure),[1],-34 mm Hg
"CC1Oc2ccc(F)cc2COC12CCN(CCCC(c1ccc(F)cc1)c1ccc(F)cc1)CC2 (centres unmarked) [Example 42, 1'-[4,4-Bis(4-fluorophenyl)butyl]-7-fluoro-2-methylspiro[2H-1,4-benzodioxepin-3(5H)4'-piperidine]hydrochloride]",SHR mm Hg (decrease in mean arterial blood pressure),[1],-126 mm Hg
"CC1Oc2ccc([N+](=O)[O-])cc2COC12CCN(CCCC(c1ccc(F)cc1)c1ccc(F)cc1)CC2 (centres unmarked) [Example 83, 1'-[4,4-Bis(4-fluorophenyl)butyl]-2-methyl-7-nitrospiro[2H-1,4-benzodioxepin-3(5H)4'-piperidine]hydrochloride]",SHR mm Hg (decrease in mean arterial blood pressure),"Table III, 3 mg/kg PO",-65 mm Hg
"CC1Oc2ccc(Cl)cc2COC12CCN(CCCC(C1CCCCC1)C1CCCCC1)CC2 (centres unmarked) [Example 87, 1'-(4,4-Dicyclohexylbutyl)-7-chloro-2-methylspiro[2H-1,4-benzodioxepin-3(5H)4'-piperidine]hydrochloride]",SHR mm Hg (decrease in mean arterial blood pressure),"Table III, 50 mg/kg PO",-69 mm Hg
"C[C@](N)(Cc1ccc(O)c(O)c1)C(=O)O [α-methyl dopa, reference compound]",SHR value,"similar test, 50 mg/kg PO for five days",-40 mm Hg
